Laboratory results published in ChEMBL document CHEMBL4184200, “Benzimidazole design, synthesis, and docking to build selective carbonic anhydrase VA inhibitors” (Bioorg Med Chem, 2018).

assay: physchem

Structure (SMILES) | pKa
NS(=O)(=O)c1cc(C(=O)Cn2ccnc2)ccc1Cl | 8.8
NS(=O)(=O)c1cc(C(=O)Nn2cnc3ccccc32)c(SC2CCCCC2)cc1Cl | 8.8
NS(=O)(=O)c1cc(C(=O)Cn2cnc3ccccc32)c(Cl)cc1Cl | 8.3
Cc1cc2ncn(CC(=O)c3cc(S(N)(=O)=O)c(Cl)cc3Sc3ccccc3)c2cc1C | 8.8
NS(=O)(=O)c1cc(C(=O)Nn2cnc3ccccc32)c(Cl)cc1Cl | 8.3
CCc1nccn1CC(=O)c1ccc(Cl)c(S(N)(=O)=O)c1 | 8.8
Cc1cc2ncn(CC(=O)c3cc(S(N)(=O)=O)c(Cl)cc3Cl)c2cc1C | 8.3
NS(=O)(=O)c1cc(C(=O)Cn2ccnc2)c(Cl)cc1Cl | 8.3
NS(=O)(=O)c1cc(C(=O)Cn2cnc3ccccc32)c(SCCc2ccccc2)cc1Cl | 8.8
NS(=O)(=O)c1cc(C(=O)Cn2cnc(-c3ccccc3)c2-c2ccccc2)ccc1Cl | 8.8
NS(=O)(=O)c1cc(C(=O)Nn2cnc3ccccc32)c(Sc2ccccc2)cc1Cl | 8.8
CC1Cc2ccccc2N1NC(=O)c1ccc(Cl)c(S(N)(=O)=O)c1 (centres undefined) [INDAPAMIDE] | 8.8

Further lines, results first:

pKa | Structure (SMILES)
8.8 | NS(=O)(=O)c1cc(C(=O)Cn2cnc3ccccc32)ccc1Cl
8.8 | Cc1nc2ccccc2n1CC(=O)c1ccc(Cl)c(S(N)(=O)=O)c1
8.8 | CCc1nc2ccccc2n1CC(=O)c1ccc(Cl)c(S(N)(=O)=O)c1
8.8 | NS(=O)(=O)c1cc(C(=O)CN2CCCc3ccccc32)ccc1Cl
8.8 | NS(=O)(=O)c1cc(C(=O)Cn2ccnc2-c2ccccc2)ccc1Cl
8.8 | Cc1cc2ncn(CC(=O)c3ccc(Cl)c(S(N)(=O)=O)c3)c2cc1C
8.8 | NS(=O)(=O)c1cc(C(=O)CN2CCc3ccccc32)ccc1Cl
